According to patent US20120077828A1, “CHEMICAL COMPOUNDS” (priority 2010, published 2012):

Target: T1, PERK (Homo sapiens, UniProt Q9NZJ5)
T1 construct: GST-PERK (536-1116) cytoplasmic domain was purchased from Invitrogen; purchased Invitrogen PV5106
T1 sequence (Q9NZJ5 536-1116): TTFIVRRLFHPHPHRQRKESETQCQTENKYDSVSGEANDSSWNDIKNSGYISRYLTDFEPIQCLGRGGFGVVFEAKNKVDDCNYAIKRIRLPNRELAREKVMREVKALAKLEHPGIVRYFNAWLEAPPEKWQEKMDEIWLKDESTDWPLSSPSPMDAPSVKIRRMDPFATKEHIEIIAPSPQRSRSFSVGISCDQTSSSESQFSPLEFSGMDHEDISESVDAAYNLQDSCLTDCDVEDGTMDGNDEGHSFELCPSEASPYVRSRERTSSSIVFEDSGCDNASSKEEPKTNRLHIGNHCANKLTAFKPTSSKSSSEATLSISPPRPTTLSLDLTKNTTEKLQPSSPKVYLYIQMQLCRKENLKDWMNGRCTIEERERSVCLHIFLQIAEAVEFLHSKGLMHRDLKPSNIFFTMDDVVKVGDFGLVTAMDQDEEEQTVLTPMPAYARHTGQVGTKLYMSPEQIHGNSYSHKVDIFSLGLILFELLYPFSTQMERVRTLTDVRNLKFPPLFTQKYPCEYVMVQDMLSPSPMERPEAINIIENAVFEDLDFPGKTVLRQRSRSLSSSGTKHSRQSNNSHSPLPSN
Experiment: PKR-like Endoplasmic Reticulum Kinase (PERK) Assay (HTRF Format)
Format: biochemical
Details: average, in at least one set of experimental runs; read-out: average pIC50 value against PERK (converted)
Protocol: PKR-like Endoplasmic Reticulum Kinase (PERK) Assay (HTRF Format)
Source of substrate: elF2α: 6-His-Full-length human elF2α is purified from baculovirus expression in Sf9 insect cells. The elF2 protein is buffer exchanged by dialysis into PBS, chemically modified by NHS-LC-Biotin and then buffer exchanged by dialysis into 50 mm TRIS pH 7.2/250 mM NaCl/5 mM DTT. Protein is aliquoted and stored at −80° C.
Assays were performed by adding GST-PERK solution to assay plates containing compounds and pre-incubated for 30 minutes at room temperature. The reaction is initiated by the addition of ATP and EIF2α substrate solution. Quench solution is added following a one hour incubation at room temperature. The plates are covered for 2 hours at room temperature prior to determination of signal. The resulting signal is quantified on a Viewlux Reader (PerkinElmer). The APC Signal is normalized to the Europium signal by transforming the data through an APC/Eu calculation.
Compounds under analysis were dissolved in DMSO to 1.0 mM and serially diluted 1 to 3 with DMSO through eleven dilutions. 0.1 μl of each concentration was transferred to the corresponding well of an assay plate. This creates a final compound concentration range from 0.00017 to 10 μM.
The data for concentration response curves were plotted as % Inhibition calculated with the data reduction formula 100*(1−(U1−C2)/(C1−C2)) versus concentration of compound where U is the unknown value, C1 is the average control value obtained for 1% DMSO, and C2 is the average control value obtained for 0.1 M EDTA. Data were fitted with a curve described by:
where A is the minimum y, B is the maximum y concentration [M], D is the slope factor, and x is the log10 of the compound.
In the above data, pIC50 is defined as −log(IC50) where the IC50 value is expressed in molar units.

Row | Compound | IC50
1 | Cn1cc(-c2ccc3c(c2)CCN3C(=O)Cc2ccccc2)c2c(N)ncnc21 [Example 4, 7-methyl-5-[1-(phenylacetyl)-2,3-dihydro-1H-indol-5-yl]-7H-pyrrolo[2,3-d]pyrimidin-4-amine] | ≤ 2.51 nM
2 | Nc1nccc2scc(-c3ccc4c(c3)CCN4C(=O)Cc3cc(F)ccc3F)c12 [Example 6, 3-{1-[(2,5-difluorophenyl)acetyl]-2,3-dihydro-1H-indol-5-yl}thieno[3,2-c]pyridin-4-amine] | ≤ 2.51 nM
3 | Nc1ncc(-c2ccncc2)c2scc(-c3ccc4c(c3)CCN4C(=O)Cc3ccccc3)c12 [Example 9, 3-[1-(phenylacetyl)-2,3-dihydro-1H-indol-5-yl]-7-(4-pyridinyl)thieno[3,2-c]pyridin-4-amine] | ≤ 1 nM
4 | Nc1ncc(-c2cn[nH]c2)c2scc(-c3ccc4c(c3)CCN4C(=O)Cc3ccccc3)c12 [Example 13, 3-[1-(phenylacetyl)-2,3-dihydro-1H-indol-5-yl]-7-(1H-pyrazol-4-yl)thieno[3,2-c]pyridin-4-amine] | ≤ 1 nM
5 | Cn1cc(-c2cnc(N)c3c(-c4ccc5c(c4)CCN5C(=O)Cc4ccccc4)csc23)cn1 [Example 14, 7-(1-methyl-1H-pyrazol-4-yl)-3-[1-(phenylacetyl)-2,3-dihydro-1H-indol-5-yl]thieno[3,2-c]pyridin-4-amine] | ≤ 2.51 nM
6 | Cc1cccc(CC(=O)N2CCc3cc(-c4nn(C)c5ncnc(N)c45)ccc32)c1 [Example 18, 1-methyl-3-(1[(3-methylphenyl)acetyl]-2,3-dihydro-1H-indol-5-yl)-1H-pyrazolo[3,4-d]pyrimidin-4-amine] | ≤ 1 nM
7 | Nc1ncc(C2=CCNCC2)c2scc(-c3ccc4c(c3)CCN4C(=O)Cc3ccccc3)c12 [Example 19, 3-[1-(phenylacetyl)-2,3-dihydro-1H-indol-5-yl]-7-(1,2,3,6-tetrahydro-4-pyridinyl)thieno[3,2-c]pyridin-4-amine] | ≤ 2.51 nM
8 | Nc1nccc2scc(-c3ccc4c(c3)CCN4C(=O)Cc3cccc(Cl)c3)c12 [Example 22, 3-{1-[(3-chlorophenyl)acetyl]-2,3-dihydro-1H-indol-5-yl}thieno[3,2-c]pyridin-4-amine] | ≤ 2.51 nM
9 | COc1cccc(CC(=O)N2CCc3cc(-c4csc5ccnc(N)c45)ccc32)c1 [Example 23, 3-(1-{[3-(methyloxy)phenyl]acetyl}-2,3-dihydro-1H-indol-5-yl)thieno[3,2-c]pyridin-4-amine] | ≤ 2.51 nM
10 | Cc1ccc(C)c(CC(=O)N2CCc3cc(-c4nn(C)c5ncnc(N)c45)ccc32)c1 [Example 28, 3-{1-[(2,5-dimethylphenyl)acetyl]-2,3-dihydro-1H-indol-5-yl}-1-methyl-1H-pyrazolo[3,4-d]pyrimidin-4-amine] | ≤ 0.316 nM
11 | Cc1cc(F)cc(CC(=O)N2CCc3cc(-c4nn(C)c5ncnc(N)c45)ccc32)c1 [Example 29, 3-{1-[(3-fluoro-5-methylphenyl)acetyl]-2,3-dihydro-1H-indol-5-yl}-1-methyl-1H-pyrazolo[3,4-d]pyrimidin-4-amine] | ≤ 0.316 nM
12 | Cc1cc(C)cc(CC(=O)N2CCc3cc(-c4nn(C)c5ncnc(N)c45)ccc32)c1 [Example 30, 3-{1-[(3,5-dimethylphenyl)acetyl]-2,3-dihydro-1H-indol-5-yl}-1-methyl-1H-pyrazolo[3,4-d]pyrimidin-4-amine] | ≤ 1 nM
13 | Nc1ncnc2scc(-c3ccc4c(c3)CCN4C(=O)Cc3cc(F)ccc3F)c12 [Example 31, 5-{1-[(2,5-difluorophenyl)acetyl]-2,3-dihydro-1H-indol-5-yl}thieno[2,3-d]pyrimidin-4-amine] | ≤ 1 nM
14 | Cc1ccccc1CC(=O)N1CCc2cc(-c3cn(C)c4ncnc(N)c34)ccc21 [Example 33, 7-methyl-5-{1-[(2-methylphenyl)acetyl]-2,3-dihydro-1H-indol-5-yl}-7H-pyrrolo[2,3-d]pyrimidin-4-amine] | ≤ 0.316 nM
15 | Cn1cc(-c2ccc3c(c2)CCN3C(=O)Cc2ccccc2F)c2c(N)ncnc21 [Example 34, 5-{1-[(2-fluorophenyl)acetyl]-2,3-dihydro-1H-indol-5-yl}-7-methyl-7H-pyrrolo[2,3-d]pyrimidin-4-amine] | ≤ 0.316 nM
16 | Cc1cccc(CC(=O)N2CCc3cc(-c4cn(C)c5ncnc(N)c45)ccc32)c1 [Example 37, 7-methyl-5-{1-[(3-methylphenyl)acetyl]-2,3-dihydro-1H-indol-5-yl}-7H-pyrrolo[2,3-d]pyrimidin-4-amine] | ≤ 0.316 nM
17 | Cn1cc(-c2ccc3c(c2)CCN3C(=O)Cc2cccc(Cl)c2)c2c(N)ncnc21 [Example 46, 5-{1-[(3-chlorophenyl)acetyl]-2,3-dihydro-1H-indol-5-yl}-7-methyl-7H-pyrrolo[2,3-d]pyrimidin-4-amine] | ≤ 0.316 nM
18 | Cn1cc(-c2ccc3c(c2)CCN3C(=O)Cc2cc(F)ccc2F)c2c(N)ncnc21 [Example 59, 5-{1-[(2,5-difluorophenyl)acetyl]-2,3-dihydro-1H-indol-5-yl}-7-methyl-7H-pyrrolo[2,3-d]pyrimidin-4-amine] | ≤ 1 nM

Continued, values first:

Row | IC50 | Compound
19 | ≤ 2.51 nM | Cn1nc(-c2ccc3c(c2)CCN3C(=O)Cc2cccc(Cl)c2)c2c(N)ncnc21 [Example 42, 3-{1-[(3-chlorophenyl)acetyl]-2,3-dihydro-1H-indol-5-yl}-1-methyl-1H-pyrazolo[3,4-d]pyrimidin-4-amine]
20 | ≤ 0.316 nM | Cc1cc(F)cc(CC(=O)N2CCc3cc(-c4cn(C)c5ncnc(N)c45)ccc32)c1 [Example 45, 5-{1-[(3-fluoro-5-methylphenyl)acetyl]-2,3-dihydro-1H-indol-5-yl}-7-methyl-7H-pyrrolo[2,3-d]pyrimidin-4-amine]
21 | ≤ 0.316 nM | Cn1cc(-c2ccc3c(c2)CCN3C(=O)Cc2cc(F)cc(Cl)c2)c2c(N)ncnc21 [Example 53, 5-{1-[(3-chloro-5-fluorophenyl)acetyl]-2,3-dihydro-1H-indol-5-yl}-7-methyl-7H-pyrrolo[2,3-d]pyrimidin-4-amine]
22 | ≤ 2.51 nM | Cn1nc(-c2ccc3c(c2)CCN3C(=O)Cc2cc(F)cc(F)c2F)c2c(N)ncnc21 [Example 55, 1-methyl-3-{1-[(2,3,5-trifluorophenyl)acetyl]-2,3-dihydro-1H-indol-5-yl}-1H-pyrazolo[3,4-d]pyrimidin-4-amine]
23 | ≤ 1 nM | Cc1cccc(CC(=O)N2CCc3cc(-c4cn(C5CCNCC5)c5ncnc(N)c45)ccc32)c1 [Example 62, 5-{1-[(3-methylphenyl)acetyl]-2,3-dihydro-1H-indol-5-yl}-7-(4-piperidinyl)-7H-pyrrolo[2,3-d]pyrimidin-4-amine]
24 | ≤ 1 nM | Cc1cccc(CC(=O)N2CCc3cc(-c4csc5ncnc(N)c45)ccc32)c1 [Example 64, 5-{1-[(3-methylphenyl)acetyl]-2,3-dihydro-1H-indol-5-yl}thieno[2,3-d]pyrimidin-4-amine]
25 | ≤ 0.316 nM | Cc1cccc(CC(=O)N2CCc3cc(-c4cn(C)c5ncnc(N)c45)ccc32)c1F [Example 71, 5-{1-[(2-fluoro-3-methylphenyl)acetyl]-2,3-dihydro-1H-indol-5-yl}-7-methyl-7H-pyrrolo[2,3-d]pyrimidin-4-amine]
26 | ≤ 1 nM | Cc1ccc(F)c(CC(=O)N2CCc3cc(-c4cn(C)c5ncnc(N)c45)ccc32)c1 [Example 73, 5-{1-[(2-fluoro-5-methylphenyl)acetyl]-2,3-dihydro-1H-indol-5-yl}-7-methyl-7H-pyrrolo[2,3-d]pyrimidin-4-amine]
